The results in this text go back to ChEMBL document CHEMBL4819123, “Pulchinenosides: Correlation of surface activity-cytotoxicity and hepatocyte apoptosis mechanism study” (Bioorg Med Chem Lett, 2021).

A short description of series [1]: Hemolytic activity in rabbit erythrocytes. The series is classed as ADME, cell-based, Oryctolagus cuniculus, Erythrocyte. To be noted: read-out: HD50 (the source's name).
Series [2] concerns L02. Kind of series: Cytotoxicity against human L02 cells by MTT assay. The class given is cell-based. Background: Formazan colour is commonly taken as a measure of viable cells.
For series [3], the system named is L02. Kind of series: Induction of apoptosis in human L02 cells assessed as early apoptotic cells at 6 uM by annexin-V-FITC/PI staining based flow cytometry analysis (reference value: 3.81 %). The series is classed as cell-based. To be noted: l02, 6 µM. For orientation: Flow cytometry measures light scatter and fluorescence of single cells or particles in a stream.

Series [4] deals with L02. Kind of series: Induction of apoptosis in human L02 cells assessed as late apoptotic cells at 6 uM by annexin-V-FITC/PI staining based flow cytometry analysis (reference value: 0.92 %). The class given is cell-based. The conditions noted are these: l02, 6 µM.
Series [5] deals with L02. Kind of series: Induction of apoptosis in human L02 cells assessed as early apoptotic cells at 8 uM by annexin-V-FITC/PI staining based flow cytometry analysis (reference value: 3.81 %). The conditions noted are these: l02, 8 µM. The series is classed as cell-based.
Series [6] relates to L02. Kind of series: Induction of apoptosis in human L02 cells assessed as late apoptotic cells at 8 uM by annexin-V-FITC/PI staining based flow cytometry analysis (reference value: 0.92 %). The class given is cell-based. The conditions noted are these: l02, 8 µM.
The test system of series [7] is L02. Kind of series: Induction of apoptosis in human L02 cells assessed as early apoptotic cells at 10 uM by annexin-V-FITC/PI staining based flow cytometry analysis (reference value: 3.81 %). The class given is cell-based. The conditions noted are these: l02, 10 µM.
In series [8] the test system is L02. Kind of series: Induction of apoptosis in human L02 cells assessed as late apoptotic cells at 10 uM by annexin-V-FITC/PI staining based flow cytometry analysis (reference value: 0.92 %). The series is classed as cell-based. To be noted: l02, 10 µM.
For series [9], the system named is L02. Kind of series: Induction of cell cycle arrest in human L02 cells assessed as G0/G1 phase accumulation at 6 uM by PI staining based flow cytometry analysis (reference value: 53.77 %). To be noted: l02, 6 µM.
Series [10] concerns L02. Kind of series: Induction of cell cycle arrest in human L02 cells assessed as S phase accumulation at 6 uM by PI staining based flow cytometry analysis (reference value: 38.23 %). The conditions noted are these: l02, 6 µM.
Series [11] relates to L02. Kind of series: Induction of cell cycle arrest in human L02 cells assessed as G2/M phase accumulation at 6 uM by PI staining based flow cytometry analysis (reference value: 8 %). To be noted: l02, 6 µM.
Series [12] concerns L02. Kind of series: Induction of cell cycle arrest in human L02 cells assessed as G0/G1 phase accumulation at 8 uM by PI staining based flow cytometry analysis (reference value: 53.77 %). To be noted: l02, 8 µM.
Series [13] relates to L02. Kind of series: Induction of cell cycle arrest in human L02 cells assessed as S phase accumulation at 8 uM by PI staining based flow cytometry analysis (reference value: 38.23 %). To be noted: l02, 8 µM.
The test system of series [14] is L02. Kind of series: Induction of cell cycle arrest in human L02 cells assessed as G2/M phase accumulation at 8 uM by PI staining based flow cytometry analysis (reference value: 8 %). The conditions noted are these: l02, 8 µM.
Series [15] deals with L02. Kind of series: Induction of cell cycle arrest in human L02 cells assessed as G0/G1 phase accumulation at 10 uM by PI staining based flow cytometry analysis (reference value: 53.77 %). To be noted: l02, 10 µM.
For series [16], the system named is L02. Kind of series: Induction of cell cycle arrest in human L02 cells assessed as S phase accumulation at 10 uM by PI staining based flow cytometry analysis (reference value: 38.23 %). To be noted: l02, 10 µM.
For series [17], the system named is L02. Kind of series: Induction of cell cycle arrest in human L02 cells assessed as G2/M phase accumulation at 10 uM by PI staining based flow cytometry analysis (reference value: 8 %). To be noted: l02, 10 µM.
The subject of series [18] is L02. Kind of series: Cytotoxicity against human L02 cells assessed as increase in LDH leakage by LDH assay. The series is classed as cell-based. On the technique in general: Release of lactate dehydrogenase indicates damage to the cell membrane.
The nature of series [19]: Oil-water partition coefficient, logP of compound. The class given is physicochemical.
For series [20], the system named is L02. Kind of series: Induction of apoptosis in human L02 cells assessed as decrease in ratio of Bcl-2/Bax at 8 to 12 ug/ml measured after 24 hrs by Western blot analysis. The series is classed as cell-based. The conditions noted are these: l02, 24 h, dose 8-12 µg/ml.
Series [21] relates to L02. Kind of series: Induction of apoptosis in human L02 cells assessed as upregulation of FAS expression at 8 to 12 ug/ml measured after 24 hrs by Western blot analysis. The series is classed as cell-based. The conditions noted are these: l02, 24 h, dose 8-12 µg/ml.
Series [22] relates to L02. Kind of series: Induction of apoptosis in human L02 cells assessed as decrease in caspase 8 level at 8 to 12 ug/ml measured after 24 hrs by Western blot analysis. To be noted: l02, 24 h, dose 8-12 µg/ml. The class given is cell-based.
In series [23] the test system is L02. Kind of series: Induction of apoptosis in human L02 cells assessed as decrease in caspase 9 level at 8 to 12 ug/ml measured after 24 hrs by Western blot analysis. The class given is cell-based. To be noted: l02, 24 h, dose 8-12 µg/ml.
The subject of series [24] is L02. Kind of series: Induction of apoptosis in human L02 cells assessed as increase in cleaved caspase 8 level at 8 to 12 ug/ml measured after 24 hrs by Western blot analysis. The series is classed as cell-based. The conditions noted are these: l02, 24 h, dose 8-12 µg/ml.

For orientation: IC50 means the concentration that gives 50% inhibition. Low values mean greater potency, high ones weaker potency. A word on the logP: it is a log measure of how a compound divides between an organic and an aqueous phase. Higher therefore signals higher lipophilicity.

On to `C[C@@H]1O[C@@H](O[C@H]2[C@H](O[C@H]3CC[C@]4(C)[C@H]5CC=C6[C@@H]7CC(C)(C)CC[C@]7(C(=O)O)CC[C@@]6(C)[C@]5(C)CC[C@H]4C3(C)C)OC[C@H](O[C@@H]3O[C@H](CO)[C@@H](O)[C@H](O)[C@H]3O)[C@@H]2O)[C@H](O)[C@H](O)[C@H]1O` [HEDERACOLCHISIDE A1], for which, in series [1], the HC50 stood at 3.24 µM. The molecule also returned a half-maximal inhibitory concentration (IC50) with L02 [2] of 7.13 µM. For the same molecule, the Activity in the series with L02 [3] came out at 4.59%; in the series with L02 [4] it was 3.11%; in the series with L02 [5], 17.6%; in the series with L02 [6] it was 38.6%; in the series with L02 [7] it was 3.51%; in the series with L02 [8] it was 94.1%. Moreover, the Activity in the series with L02 [9] is 62.05%; with L02 [10], 29.95%; in the series with L02 [11], 8%; in the series on L02 [12], 67.33%; in the series on L02 [13], 32.66%; in the series on L02 [14] it was 2%. The Activity is given as 39.69% in the series with L02 [15]; 58.44% in the series with L02 [16]; 1.88% with L02 [17]; “Toxic” with L02 [18]; “Toxic” in the series with L02 [20]; “Toxic” with L02 [21]. The Activity result in the series with L02 [22], in the series with L02 [23] and in the series with L02 [24] was “Toxic” throughout. In series [19], this molecule had a logP of 0.0406.
